From ChEMBL document CHEMBL5055649, “Synthesis and biological evaluation of 3,5-substituted pyrazoles as possible antibacterial agents” (Bioorg Med Chem, 2021)
≈ marks a conversion by molar mass, not a printed value. Calls of active or inactive are those of the source. The rule behind the calls is not given here.

Experiments:
Bacillus subtilis [1] = experiment: Bacteriostatic activity against Bacillus subtilis 168 assessed as reduction in bacterial growth measured after 20 hrs by CLSI protocol based broth microdilution method; type: functional, organism-based
Staphylococcus aureus [2] = experiment: Bacteriostatic activity against Staphylococcus aureus ATCC 25923 assessed as reduction in bacterial growth measured after 20 hrs by CLSI protocol based broth microdilution method; type: functional, organism-based
Escherichia coli [3] = experiment: Antibacterial activity against Escherichia coli MG1655 assessed as bacterial growth inhibition measured after 20 hrs by CLSI protocol based broth microdilution method; type: functional
Staphylococcus aureus [4] = experiment: Antibacterial activity against Staphylococcus aureus ATCC 25923 assessed as bacterial growth inhibition measured after 20 hrs by CLSI protocol based broth microdilution method; type: functional
[5] = Cytotoxicity against mouse 3T3-L1 cells assessed as cell viability at 25 ug/ml measured up to 72 hrs y MTT assay relative to control; type: cell-based; conditions: at 25 µg/mL, read-out: Activity
Bacillus subtilis [6] = experiment: Antibacterial activity against Bacillus subtilis 168 assessed as bacterial growth inhibition measured after 20 hrs by CLSI protocol based broth microdilution method; type: functional
Bacillus subtilis [7] = experiment: Antibacterial activity against Bacillus subtilis 168 assessed as diameter of zone of inhibition by agar plate diffusion method; type: functional
Escherichia coli [8] = experiment: Antibacterial activity against Escherichia coli assessed as zone of inhibition by plate agar diffusion method; type: functional
3T3-L1 = experiment: Cytotoxicity against mouse 3T3-L1 cells assessed as reduction in cell viability at 50 ug/ml measured after 24 to 72 hrs y MTT assay; type: cell-based; conditions: time 24-72 hrs, dose 50 µg/ml
Bacillus subtilis [9] = experiment: Induction of morphological changes in Bacillus subtilis 168 assessed as immediate cell lysis at >8 ug/ml incubated for 120 mins by phase-contrast microscopic analysis; type: functional, organism-based; conditions: dose > 8.0 µg/ml
Bacillus subtilis [10] = experiment: Induction of morphological changes in Bacillus subtilis 168 assessed as cell lysis at 2.5 to 3.5 times MIC incubated for 1 hr by phase-contrast microscopic analysis; type: functional, organism-based
Bacillus subtilis [11] = experiment: Induction of morphological changes in Bacillus subtilis 168 assessed as cell lysis at 2.5 to 3.5 times MIC incubated for 2 hrs by phase-contrast microscopic analysis; type: functional, organism-based
Bacillus subtilis [12] = experiment: Induction of morphological changes Bacillus subtilis 168 assessed as morphological changes by measuring cell lysis with cell debris and ghost cells at 3 times MIC incubated for 3 hr by phase-contrast microscopic analysis; type: functional, organism-based
Bacillus subtilis [13] = experiment: Induction of morphological changes in Bacillus subtilis 168 assessed as bulbous distortion at 2.5 to 2.75 times MIC incubated for 3 hr by phase-contrast microscopic analysis; type: functional, organism-based

| SMILES | MIC95 (Escherichia coli [3]) [µg/mL] | MIC95 (Staphylococcus aureus [4]) [µg/mL] | further results |
| --- | --- | --- | --- |
| COc1cc(-c2cc(-c3ccc(C(C)(C)C)cc3)n[nH]2)ccc1O | > 128 | 32 (≈ 99.3 µM) | Activity (Bacillus subtilis [1]): Active; Activity (Staphylococcus aureus [2]): Active; viability at 72 h, 25 ug/ml [5]: 85%; MIC (Bacillus subtilis [6]): 16 µg/mL (≈ 49.6 µM) |
| COc1ccc(OC)c(-c2cc(-c3ccc(-c4ccc(Cl)cc4)cc3)n[nH]2)c1 | > 128 | > 128 |  |
| Clc1ccc(-c2ccc(-c3cc(-c4cccc(OCc5ccccc5)c4)[nH]n3)cc2)cc1 | > 128 | > 128 |  |
| COc1ccc(-c2cc(-c3ccc(-c4ccc(Cl)cc4)cc3)n[nH]2)c(OC)c1 | > 128 | > 128 |  |
| COc1cc(-c2cc(-c3ccc(-c4ccc(Cl)cc4)cc3)n[nH]2)ccc1OCc1ccccc1 | > 128 | > 128 |  |
| COc1ccc(-c2cc(-c3ccc(-c4ccc(Cl)cc4)cc3)n[nH]2)cc1 | > 128 | > 128 |  |
| COc1ccc(-c2cc(-c3ccc(-c4ccc(C(C)(C)C)cc4)cc3)n[nH]2)cc1 | > 128 | > 128 |  |
| CC(C)(C)c1ccc(-c2ccc(-c3cc(-c4ccc(OCc5ccccc5)cc4)[nH]n3)cc2)cc1 | > 128 | > 128 |  |
| COc1ccc(OC)c(-c2cc(-c3ccc(-c4ccc(C(C)(C)C)cc4)cc3)n[nH]2)c1 | > 128 | > 128 |  |
| Clc1ccc(-c2ccc(-c3cc(-c4ccc(OCc5ccccc5)cc4)[nH]n3)cc2)cc1 | > 128 | > 128 |  |

The next lines start with results.

| MIC95 (Escherichia coli [3]) [µg/mL] | MIC95 (Staphylococcus aureus [4]) [µg/mL] | SMILES | further results |
| --- | --- | --- | --- |
| > 128 | > 128 | COc1ccc(-c2cc(-c3ccc(-c4ccccc4)cc3)n[nH]2)cc1OC | diameter of the inhibition zone (DIZ) (Bacillus subtilis [7]): 13 mm; diameter of the inhibition zone (DIZ) (Escherichia coli [8]): 20 mm |
| > 128 | > 128 | COc1ccc(OC)c(-c2cc(-c3ccc(-c4ccccc4)cc3)n[nH]2)c1 |  |
| > 128 | > 128 | Oc1cccc(-c2cc(-c3ccc(-c4ccccc4)cc3)n[nH]2)c1 |  |
| > 128 | > 128 | COc1ccc(-c2cc(-c3ccc(-c4ccc(Cl)cc4)cc3)n[nH]2)cc1OC |  |
| > 128 | 8 (≈ 23.4 µM) | COc1cc(-c2cc(-c3ccc(-c4ccccc4)cc3)n[nH]2)ccc1O | Activity (Bacillus subtilis [1]): Active; Activity (Staphylococcus aureus [2]): Active; Activity (3T3-L1): Non-Toxic; Activity (Bacillus subtilis [9]): inactive; Activity (Bacillus subtilis [10]): Active; Activity (Bacillus subtilis [11]): Active; Activity (Bacillus subtilis [12]): Active; Activity (Bacillus subtilis [13]): Active; MIC (Bacillus subtilis [6]): 8 µg/mL (≈ 23.4 µM) |
| > 128 | > 128 | COc1ccc(-c2cc(-c3ccc(-c4ccccc4)cc3)n[nH]2)cc1 |  |
| > 128 | > 128 | COc1ccc(-c2cc(-c3ccc(-c4ccc(C(C)(C)C)cc4)cc3)n[nH]2)cc1OC |  |
